≈ marks a conversion by molar mass, not a printed value. Where two headings read alike, the source gives them in different places.
Experiments:
Format in all cases: cell-based, Pseudomonas aeruginosa
[1] = test system: P. aeruginosa planktonically grown cells; experiment: microbe, parasite or virus in culture
Procedure: To measure antimicrobial susceptibility of planktonic cells, MICs were determined using the broth microdilution technique, as described previously. Briefly, microdilutions were made in a 96-well plate in 1% MHB diluted in Dulbecco's Phosphate Buffered Saline with magnesium and calcium (DPBS, Sigma-Aldrich). Cells were combined with the serial dilutions in the 96-well plate at a concentration of ˜[…] CFU/mL in 10% MHB. The plates were then incubated for 24-hrs at 35° C. in a humidified chamber with agitation at 150 RPM. MIC breakpoints were chosen as the minimum concentration in which no turbidity greater than background was measured (absorbance at 595 nm), using a SpectraMax M5 microplate spectrophotometer system (Molecular Devices Sunnyvale, Calif.

24-hr old PAO1 biofilms = experiment: Biofilm susceptibility testing (MBEC assay, BacTiter-Glo); conditions: for time required to show antimicrobial activity: 24-hr biofilms, melittin 100 μM, tobramycin 400 μM; for EC50: Pseudomonas aeruginosa, read-out: half effective concentration 50 (EC50) of tobramycin; for number of viable cells within the biofilms (BacTiter-Glo), mean / fold reduction of viable cells versus untreated biofilm / percent of P. aeruginosa cells in the biofilm killed / percent of cells within 24-hr biofilms killed: 6-hrs; for fold reduction of viable cells versus untreated biofilm / percent of P. aeruginosa cells in the biofilm killed: oxyclozanide 100 μM, tobramycin 500 μM, gentamicin/streptomycin/tetracycline 100 μM, alone or in combination; for time killing curve result at 2 and 4 hrs, single agent: oxyclozanide or tobramycin alone; for onset of action: time killing curves, antibiotic alone or with oxyclozanide (100 μM)
Procedure: (§1) To measure antimicrobial susceptibility of biofilms, the MBEC™ assay was used (Innovotech) as previously described. This assay consists of a lid with 96 polystyrene pegs used to grow biofilms. Briefly, an overnight culture was washed and diluted to an OD600 of 0.001 and seeded into a MBEC™ plate. To grow biofilms, the plate was then incubated for 24-hrs at 35° C. in a humidified chamber with agitation at 150 RPM. After 24-hrs, the lid was then transferred to a 96-well plate filled with DPBS and washed for 5-mins to remove non-adherent cells. The lid was transferred to the 96-well treatment plate and incubated for the indicated time points at 35° C. without agitation. After the incubation, the MBEC™ lid was washed and transferred to a black 96-well ViewPlate (PerkinElmer) filled with BacTiter-Glo™ to enumerate cell viability and then luminescence was measured using a EnVison Multilabel Plate Reader (PerkenElmer, Waltham, Mass.). Percent killing was calculated as:
[formula] Dose response curves were performed in the same manner. Crystal Violet Staining
Time killing curves were performed by growing 24-hr old biofilms on MBEC™ plates as previously described. Briefly, 100 μM of oxyclozanide and 500 μM of tobramycin were used to test for synergy at high concentrations of tobramycin, mirroring what is done clinically. The peg-lid was briefly washed in DPBS to remove non-adherent cells and transferred to a treatment plate and incubated at 35° C. for 8-hrs. At 0, 2, 4, 6, and 8-hrs pegs were collected and BacTiter-Glo™ was used to determine cell viability.

P. aeruginosa biofilms = experiment: Crystal violet staining of biofilm biomass (biofilm dispersal); conditions: for effect on biofilm biomass / dispersal (crystal violet): six hour exposure, 50 μM-400 μM, alone and in combination
Procedure: To study biofilm dispersal under static conditions, crystal violet staining was performed as previously described. Briefly, 24-hr old biofilms formed on MBEC™ plates, as described above, were stained with crystal violet after a 6-hr incubation with oxyclozanide and tobramycin.
One possible mechanism by which oxyclozanide enhances tobramycin activity is by inducing biofilm dispersal. To test this, the ability of oxyclozanide and tobramycin to disperse P. aeruginosa biofilms was examined using crystal violet staining of the biofilm biomass after six hour exposure to dilutions of oxyclozanide or tobramycin alone and in combination from 50 μM-400 μM (FIG. 6).

[2] = test system: P. aeruginosa clinical isolates from CF patients grown in biofilms; experiment: Biofilm susceptibility of CF clinical isolates (MBEC, BacTiter-Glo); conditions: 100 μM oxyclozanide; 6-hrs
Procedure: 24-hr old biofilms grown on MBEC plates were treated with oxyclozanide (100 μM), or tobramycin (500 μM), alone and in combination for 6-hrs. The number of viable cells within the biofilms were quantified by BacTiter-Glo™. The assay was performed three times in triplicate. The results represent means plus the SEM. A one-way ANOVA followed by Bonferroni's multiple comparison post-hoc test was used to determine statistical significance compared to tobramycin alone (*, p<0.05, NS, not significant).
as §1, with “The lid was transferred to the 96-well treatment plate and incubated for the indicated time points at 35° C. without agitation.” left out, “as: […]” for “as:”

[3] = test system: P. aeruginosa cells within biofilms; experiment: TO-PRO-3 staining for permeabilization of biofilm cells; conditions: melittin 100 μM, 2 hours
Procedure: 24-hr old biofilms were treated with melittin (100 μM), or tobramycin (400 μM), alone and in combination for 2 hours. […] Percent values indicate the average relative abundance of events within each gate normalized to the total number of events analyzed, excluding artifacts, aggregates and debris. The experiment was performed two separate times in duplicate. The results are percent averages plus the SEM. A one-way ANOVA followed by Bonferroni's multiple comparison post-hoc test was used to determine statistical significance between tobramycin versus melittin, tobramycin versus the combination, and melittin versus the combination(*, p<0.05).

[4] = Pseudomonas aeruginosa, read-out: Minimum Inhibitory Concentrations (MIC), +Melittin
[5] = Pseudomonas aeruginosa, read-out: Minimum Inhibitory Concentrations (MIC), Alone

Row | Compound | MIC [1, 4] [µM] | MIC [1, 5] [µM] | time required to show antimicrobial activity (24-hr old PAO1 biofilms) [h] | fold reduction of viable cells versus untreated biofilm (24-hr old PAO1 biofilms) | percent of P. aeruginosa cells in the biofilm killed (24-hr old PAO1 biofilms) [%] | time killing curve result at 2 and 4 hrs, single agent (24-hr old PAO1 biofilms) | onset of action (24-hr old PAO1 biofilms) [h] | effect on biofilm biomass / dispersal (crystal violet) (P. aeruginosa biofilms) | Minimum Inhibitory Concentrations (MIC), Alone [1] [µM] | further results
1 | NC[C@H]1O[C@H](O[C@H]2[C@H](O)[C@@H](O[C@H]3O[C@H](CO)[C@@H](O)[C@H](N)[C@H]3O)[C@H](N)C[C@@H]2N)[C@H](N)C[C@@H]1O [tobramycin] | 3.12 to 6.25 (≈ 1.46 to 2.92 µg/mL) | 3.12 to 6.25 (≈ 1.46 to 2.92 µg/mL) | 6 | about 2 fold | 56 | increase in cell number | 6 | significantly reduced biofilm biomass |  | EC50 (24-hr old PAO1 biofilms; PAO1, in combination with melittin): 16 µM; EC50 (24-hr old PAO1 biofilms; PAO1, tobramycin alone): 46 µM; number of viable cells within the biofilms (BacTiter-Glo), mean (24-hr old PAO1 biofilms; Tobramycin 50 μM, Melittin 0 μM): 1.82E5; number of viable cells within the biofilms (BacTiter-Glo), mean (24-hr old PAO1 biofilms; Tobramycin 100 μM, Melittin 0 μM): 1.91E5; number of viable cells within the biofilms (BacTiter-Glo), mean (24-hr old PAO1 biofilms; Tobramycin 200 μM, Melittin 0 μM): 2.27E5
2 | O=C(Nc1cc(Cl)cc(Cl)c1O)c1c(O)c(Cl)cc(Cl)c1Cl [oxyclozanide] |  |  |  | about 2 fold | 44 | no significant killing |  | did not impact biofilm biomass |  | effect on the minimum inhibitory concentration of tobramycin, gentamicin, streptomycin, or tetracycline ([1]; planktonically grown cells): no effect; sensitivity of six clinical isolates to treatment alone [2]: modest sensitivity; percent of cells within 24-hr biofilms killed (24-hr old PAO1 biofilms; 400 μM of each agent): ~80%; percent of cells within 24-hr biofilms killed (24-hr old PAO1 biofilms; oxyclozanide alone between 25 and 200 μM): 20-40%
3 | [H]/N=C(/N)N[C@H]1[C@H](O)[C@@H](O)[C@H](O[C@@H]2O[C@@H](C)[C@](O)(C=O)[C@H]2O[C@@H]2O[C@@H](CO)[C@H](O)[C@@H](O)[C@@H]2NC)[C@@H](N/C(N)=N\[H])[C@@H]1O [streptomycin] | 25 to 50 (≈ 14.5 to 29.1 µg/mL) | 25 to 50 (≈ 14.5 to 29.1 µg/mL) |  |  |  |  |  |  |  | delay in killing activity against 24-hr old biofilms (24-hr old PAO1 biofilms; antibiotic alone, 100 μM): did not show a delay
4 | gentamicin |  |  |  |  |  |  | 4 |  | 6.25 to 12.5 | MIC ([1]; +Melittin, read-out: Minimum Inhibitory Concentrations (MIC), +Melittin): 12.5 µM
5 | CC[C@H](C)[C@H](NC(=O)CN)C(=O)NCC(=O)N[C@@H](C)C(=O)N[C@H](C(=O)N[C@@H](CC(C)C)C(=O)N[C@@H](CCCCN)C(=O)N[C@H](C(=O)N[C@@H](CC(C)C)C(=O)N[C@H](C(=O)N[C@H](C(=O)NCC(=O)N[C@@H](CC(C)C)C(=O)N1CCC[C@H]1C(=O)N[C@@H](C)C(=O)N[C@@H](CC(C)C)C(=O)N[C@H](C(=O)N[C@@H](CO)C(=O)N[C@@H](Cc1c[nH]c2ccccc12)C(=O)N[C@H](C(=O)N[C@@H](CCCCN)C(=O)N[C@@H](CCCNC(=N)N)C(=O)N[C@@H](CCCCN)C(=O)N[C@@H](CCCNC(=N)N)C(=O)N[C@@H](CCC(N)=O)C(=O)N[C@@H](CCC(N)=O)C(N)=O)[C@@H](C)CC)[C@@H](C)CC)[C@@H](C)O)[C@@H](C)O)C(C)C)C(C)C [melittin] |  |  | 2 |  |  |  |  |  | 62.5 to 200 | permeabilization of cells (TO-PRO-3) [3]: causes permeabilization; number of viable cells within the biofilms (BacTiter-Glo), mean (24-hr old PAO1 biofilms; Tobramycin 0 μM, Melittin 12.5 μM): 5.18E5; number of viable cells within the biofilms (BacTiter-Glo), mean (24-hr old PAO1 biofilms; Tobramycin 0 μM, Melittin 25 μM): 4.22E5; number of viable cells within the biofilms (BacTiter-Glo), mean (24-hr old PAO1 biofilms; Tobramycin 0 μM, Melittin 50 μM): 2.87E5; number of viable cells within the biofilms (BacTiter-Glo), mean (24-hr old PAO1 biofilms; Tobramycin 0 μM, Melittin 100 μM): 2.51E4; biofilm dispersal (crystal violet) (P. aeruginosa biofilms; 24-hr biofilms treated for 6-hrs): significant biofilm dispersal
